The values that follow come from US20140093489A1, “NUTRITIONAL SUPPLEMENTS FOR EYE HEALTH AND RELATED METHODS” (priority 2012, published 2014).

Series [1] can be described thus: Coenzyme Q supplementation effect on serum vitamin C. In kind it is in vivo. The source says:
FIG. 1. Coenzyme Q supplementation effect on serum vitamin C (μg/ml). Subjects (N=12) were given coenzyme Q for 2 weeks with blood taken pre and post intervention. Values are means±SD.
Coenzyme Q has antioxidant properties. This molecule is found in the diet and is made by the body. Body production declines with age. Absorption of orally ingested coenzyme Q can be low, though certain forms work better than others.

Series [2] relates to plasma extracellular superoxide dismutase. As to conditions: rats fed the copper at adequate level for 6 weeks, unpaired t-test P<0.01. An excerpt: FIG. 4. Comparison of adequate copper intake as sulfate or glycinate for effects on plasma extracellular superoxide dismutase activities in rats. Rats were fed the copper for 6 weeks. […] Values are means±SD in activity units/ml.
Copper is another important cofactor for metalloenzymes, and is a second necessary cofactor for superoxide dismutase.

The conditions of series [3]: one dose of zinc, blood samples at 0-4 hours, n=12, ANOVA+Tukey p<0.05. As to the method: FIG. 2. Relative zinc absorption from three different forms of zinc. Subjects (n=12) were given one dose of zinc with blood samples taken at 0, 1, 2, 3, and 4 hours. Erythrocyte (red blood cell) zinc was analyzed for each time point with area under the curve used as a measure of relative absorption. The order of the different forms of zinc was randomly determined for each subject. A washout of at least 2 weeks occurred between testings of the different forms of zinc. Values are means±SD.
Zinc is important in maintaining the health of an eye's retina and is an essential part of more than 100 enzymes involved in digestion, metabolism, reproduction, and wound healing. […] (FIG. 3).

For series [4] the following is noted: 60 mg/day zinc for 6 weeks.
Procedure: Plasma zinc (μg/ml) response to zinc supplementation as gluconate (GLUC) or glycinate chelate (CHE). Young adult females were given 60 mg/day zinc for 6 weeks.

Where two headings read alike, the source gives them in different places.

For the compound `COC1=C(OC)C(=O)C(C/C=C(\C)CC/C=C(\C)CC/C=C(\C)CC/C=C(\C)CC/C=C(\C)CC/C=C(\C)CC/C=C(\C)CC/C=C(\C)CC/C=C(\C)CCC=C(C)C)=C(C)C1=O` [Coenzyme Q], the “serum vitamin C (μg/ml), post-values vs pre-values” in series [1] (coenzyme Q for 2 weeks, N=12, paired t-test P<0.001) is “significantly different from pre-values”. Also, the “plasma concentrations of active vitamin C” value in series [1] (well-absorbed form of coenzyme Q, FIG. 1) is “greatly increase plasma concentrations of active vitamin C”.
Consider `NCC(=O)[O-].NCC(=O)[O-].[Cu+2]` [copper glycinate], for which the “plasma extracellular superoxide dismutase activities (activity units/ml)” value was “higher activities of a plasma copper enzyme than copper sulfate” in series [2] and “significantly different from sulfate values” in series [2] (listed as Glycinate).
Consider `NCC(=O)[O-].NCC(=O)[O-].[Zn+2]` [zinc glycinate], for which the “relative zinc absorption (erythrocyte zinc area under the curve)” value was “better absorbed than zinc oxide” in series [3] and “differed from the other two groups” in series [3] (listed as Zinc chelate). For the same compound, the “plasma zinc (μg/ml), post treatment vs pre-treatment” value in series [4] is “significantly different from pre-treatment”.
Consider zinc gluconate [reference compound], for which, in series [4], the “plasma zinc (μg/ml), post treatment vs pre-treatment” value is recorded as “statistically significant decrease”.
